{"source": "patent EP2822595B1", "about": "“SPHINGOSINE-1 -PHOSPHATE RECEPTORS MODULATORS FOR IMPROVING VACCINE IMMUNIZATION” (Istituto Superiore di Sanità, priority 2012, dated 2013)", "key": {"[1]": {"system": "TT-specific antibody responses", "format": "in vivo, BALB/c mice", "conditions": "for titre of TT-specific IgA antibodies: one week after the recall dose, vs TT+CT without treatment"}, "[2]": {"system": "Ova-specific CD4^+ and CD8^+ T lymphocytes", "format": "in vivo, BALB/c mice", "conditions": "8 months after the fourth immunization, vs non treated"}, "[3]": {"system": "patients affected by Multiple Sclerosis", "conditions": "cited from earlier work"}, "[4]": {"system": "TT-specific antibody responses", "format": "in vivo, BALB/c mice", "conditions": "sera"}, "[5]": {"system": "antigen-specific CD4^+ and CD8^+ proliferating cells", "test": "CFSE proliferation assay of TT-specific T lymphocytes after systemic (intraperitoneal) immunization", "format": "in vivo, BALB/c mice", "conditions": "4 months after the second intraperitoneal immunization, vs non treated, p < 0.05"}, "[6]": {"system": "S1P receptors (S1P1, S1P3, S1P4 e S1P5)", "conditions": "4 of 5 S1P receptors (S1P1, S1P3, S1P4 e S1P5); cited from earlier work"}, "[7]": {"system": "TT-specific antibody responses", "format": "in vivo, BALB/c mice", "conditions": "FTY720 0.5 mg/Kg intragastric 48 and 24 hours before intranasal TT+CT"}, "[8]": {"system": "antigen-specific CD4^+ and CD8^+ T lymphocytes", "test": "CFSE proliferation assay of TT-specific T lymphocytes after intranasal immunization", "format": "in vivo, BALB/c mice"}, "[9]": {"system": "TT-specific antibody secreting cells (ASC)", "format": "in vivo, BALB/c mice", "conditions": "bone marrow"}, "[10]": {"conditions": "serum, TT-specific, TT+CT intranasal plus FTY720 vs without, at different analyzed kinetic points"}, "[11]": {"conditions": "oral, 0.5 and 1.25 mg a day, phase III clinical trials"}, "[12]": {"conditions": "draining (mediastinal) lymph nodes, two weeks after the fourth immunization, vs immunized non treated mice, p < 0.05"}, "[13]": {"conditions": "draining lymph nodes, 8 months after the fourth immunization, one week after one recall dose, vs non treated, p < 0.05"}, "[14]": {"conditions": "spleen, 8 months after the fourth immunization, after one recall dose, vs non treated"}, "[15]": {"conditions": "spleen, two weeks after the fourth immunization, treated vs non treated"}}, "note": "Where two headings read alike, the source gives them in different places.", "data": [{"smiles": "CCCCCCCCc1ccc(CCC(N)(CO)CO)cc1.Cl", "note": "[FTY720, 2-amino-2-(2-(4-octylphenyl)ethyl)propane-1,3-diol hydrochloride]", "values": [{"measurement": "titre of TT-specific IgA antibodies", "setting": "[1]; saliva", "value": "higher titres"}, {"measurement": "titre of IgG1 subclass", "setting": "[1]; [10]", "value": "Increase of the titre"}, {"measurement": "titre of IgG2a subclass", "setting": "[1]; [10]", "value": "Increase of the titre"}, {"measurement": "anti-TT IgG antibody titre", "setting": "[1]; serum, four months after the fourth immunization (pre-boost), vs immunized mice without treatment", "value": "maintained at higher levels"}, {"measurement": "IgG antibodies specific for the TT", "setting": "[1]; serum, one week after boost given four months after the fourth immunization, vs immunized mice without treatment", "value": "higher levels"}, {"measurement": "anti-tetanus IgG antibody titre", "setting": "[1]; serum, one week after the fourth intranasal immunization, TT+CT plus FTY720 (761) vs TT+CT without treatment (304), apparently times over TT only", "value": 761}, {"measurement": "anti-tetanus IgG antibody titre", "setting": "[1]; serum, one week after the second intranasal immunization with TT+CT, FTY720 0.5 mg/Kg intragastric the day after first and second immunization, TT+CT without treatment: 54 times", "value": "305 times with respect to the titre of mice which received only TT"}, {"measurement": "anti-tetanus IgG antibody titre", "setting": "[1]; serum, one week after the third intranasal immunization, TT+CT plus FTY720 vs TT+CT without treatment", "value": "increase"}, {"measurement": "titre of TT-specific IgA antibodies", "setting": "[1]; vaginal washes (VW)", "value": "higher titres"}, {"measurement": "percentage of Ova-specific CD4^+ T lymphocytes", "setting": "[2]; draining lymph nodes", "value": "higher percentage"}, {"measurement": "percentage of Ova-specific CD8^+ T lymphocytes", "setting": "[2]; draining lymph nodes", "value": "higher percentage"}, {"measurement": "percentage of Ova-specific CD4^+ T lymphocytes", "setting": "[2]; spleen", "value": "higher percentage"}, {"measurement": "percentage of Ova-specific CD8^+ T lymphocytes", "setting": "[2]; spleen", "value": "higher percentage"}, {"measurement": "infectious complications", "setting": "[3]; mainly in patients who received the higher dose (1.25 mg a day)", "value": "some infectious complications"}, {"measurement": "effectiveness in Multiple Sclerosis patients", "setting": "[3]; [11]", "value": "effective"}, {"measurement": "tolerability in Multiple Sclerosis patients", "setting": "[3]; [11]", "value": "well tolerated"}, {"measurement": "titre of anti-tetanus IgG antibodies, differences between the two groups", "setting": "[4]; one month after the second intraperitoneal immunization, treated vs non treated, differences decreased", "value": "still detectable"}, {"measurement": "titre of anti-tetanus IgG antibodies", "setting": "[4]; one week after the first intraperitoneal immunization with TT+CT, FTY720 0.5 mg/Kg intragastrically the day after immunization, TT+CT without treatment: 63 times", "value": "203 times with respect to the titre of mice immunized only with TT"}, {"measurement": "titre of anti-tetanus IgG antibodies", "setting": "[4]; one week after the second intraperitoneal immunization, TT+CT plus FTY720 (575) vs TT+CT without treatment (152), apparently times over TT only", "value": 575}, {"measurement": "percentage of antigen-specific CD4^+ proliferating cells", "setting": "[5]; lymph nodes", "value": "higher percentage"}, {"measurement": "percentage of antigen-specific CD8^+ proliferating cells", "setting": "[5]; lymph nodes", "value": "higher percentage"}, {"measurement": "percentage of antigen-specific CD4^+ proliferating cells", "setting": "[5]; spleen", "value": "higher percentage"}, {"measurement": "percentage of antigen-specific CD8^+ proliferating cells", "setting": "[5]; spleen", "value": "higher percentage"}, {"measurement": "agonist activity at S1P receptors", "setting": "[6]", "value": "strong agonist"}, {"measurement": "titre of anti-tetanus IgG antibodies", "setting": "[7]; one week after the second immunization, data not showed", "value": "only the titre of anti-tetanus IgG antibodies in mice immunized with TT and CT was appreciable"}, {"measurement": "titre of IgG antibody specific for the TT", "setting": "[7]; one week after the third immunization", "value": "higher in mice immunized with TT and CT in the absence of treatment"}, {"measurement": "proliferation of antigen-specific CD4^+ T lymphocytes", "setting": "[8]; [12]", "value": "significantly higher"}, {"measurement": "proliferation of antigen-specific CD8^+ T lymphocytes", "setting": "[8]; [12]", "value": "significantly higher"}, {"measurement": "proliferation of antigen-specific CD4^+ T lymphocytes", "setting": "[8]; [13]", "value": "higher"}, {"measurement": "proliferation of antigen-specific CD8^+ T lymphocytes", "setting": "[8]; [13]", "value": "higher"}, {"measurement": "percentage of antigen-specific CD4^+ T lymphocytes", "setting": "[8]; [14]", "value": "higher percentage"}, {"measurement": "percentage of antigen-specific CD8^+ T lymphocytes", "setting": "[8]; [14]", "value": "higher percentage"}, {"measurement": "proliferation of antigen-specific CD4^+ T lymphocytes", "setting": "[8]; [15]", "value": "comparable"}, {"measurement": "proliferation of antigen-specific CD8^+ T lymphocytes", "setting": "[8]; [15]", "value": "comparable"}, {"measurement": "number of anti-TT IgG ASC", "setting": "[9]; two weeks after the fourth immunization, immunized and not treated mice: 60", "value": "115 ASC/1×10^6 of cells"}, {"measurement": "number of anti-TT IgA ASC", "setting": "[9]; two weeks after the fourth immunization, non treated: 40", "value": "80 ASC/1×10^6 of cells"}, {"measurement": "number of anti-TT IgG ASC", "setting": "[9]; two weeks after the recall dose (4 months after fourth immunization), non treated: 123", "value": "240 ASC/1×10^6 of cells"}, {"measurement": "number of anti-TT IgA ASC", "setting": "[9]; two weeks after the recall dose, non treated: 58", "value": "136 ASC/1×10^6 of cells"}]}]}
